The assay in a line: Inhibition of formalin induced pain response in mice. The class given is in vivo, mouse (NMRI female mice). Particulars: 0.1 mg/kg, 1% formalin into left hind paw. Here is the method: Compounds of formula I may be used to treat all painful, hyperalgesic and/or inflammatory conditions in which C-fibers play a pathophysiological role by eliciting neurogenic pain or inflammation, i.e.: Formalin induced pain or paw oedema […] About 20 g NMRI female mice were injected […] 1% formalin into the left hind paw. The animals were then placed on a heated (31° C.) table, and the pain response was scored. After 1 h they were killed and bled. Left and right hind paws were removed and the weight difference between the paws was used as indication of the oedema response of the formalin injected paw. Values for inhibition of formalin induced pain response for some representative compounds are recorded in table 1.

Where a name gives a salt, the structure may show the parent alone.

`Cl.O=C1Cc2ccccc2N(CCCN2CCC[C@@H](C(=O)O)C2)c2ccccc21` [Example 1, (R)-1-(3-(10-Oxo-10,11-dihydro-5H-dibenz[b,f]azepin-5-yl)-1-propyl)-3-piperidinecarboxylic acid hydrochloride]: the “% Pain inhibition (inhibition of formalin induced pain response)” value is 21%.

Regarding `O=C(O)[C@@H]1CCCN(CCC=C2c3ccccc3CSc3ccccc32)C1` [Example 3, (R)-1-(3-(6,11-Dihydro-dibenz[b,e]thiepin-11-yl)-1-propylidene)-3-piperidinecarboxylic acid hydrochloride], the “% Pain inhibition (inhibition of formalin induced pain response)” value amounted to 31%.

The values are drawn from US5716949A, “Heterocyclic compounds” (Novo Nordisk A/S, priority 1995, dated 1998).
